# Target: CB1 (mutant) (Homo sapiens, UniProt P21554)
# Experiment: R-SAT functional receptor assay, CB1 (mutant, truncated after amino acid 417)
# Type: cell-based
# Details: Appendix A; R-SAT CB1; receptor form (mutant or wild-type) not stated; read-out: pIC50 (converted)
# Sequence of CB1 (mutant) (P21554 1-417, change not shown): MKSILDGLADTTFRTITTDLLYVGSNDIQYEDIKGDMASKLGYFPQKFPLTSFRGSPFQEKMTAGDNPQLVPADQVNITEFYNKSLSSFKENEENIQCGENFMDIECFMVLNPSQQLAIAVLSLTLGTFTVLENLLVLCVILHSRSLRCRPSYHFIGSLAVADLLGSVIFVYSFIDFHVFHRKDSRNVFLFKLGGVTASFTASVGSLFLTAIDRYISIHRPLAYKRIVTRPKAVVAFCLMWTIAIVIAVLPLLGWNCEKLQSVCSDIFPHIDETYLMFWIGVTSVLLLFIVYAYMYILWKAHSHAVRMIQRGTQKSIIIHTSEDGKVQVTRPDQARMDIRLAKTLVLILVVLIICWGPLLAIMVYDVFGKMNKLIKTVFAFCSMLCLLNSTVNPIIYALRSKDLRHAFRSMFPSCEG
row,IC50,Structure (SMILES)
1,7.94 nM,O=C(NCc1cccs1)c1ccc2c(c1)N=C(c1ccc(Cl)cc1)c1ccccc1S2 [drawing 751]
2,794 nM,CCCC1=Nc2cc(C(=O)NCCc3ccccc3)ccc2Sc2ccccc21
3,20 nM,O=C(NC1CCCCC1)c1ccc2c(c1)N=C(c1cccc(F)c1)c1ccccc1S2 [drawing 941]
4,251 nM,CCCC1=Nc2cc(C(=O)NC3CCN(C(=O)OCC)CC3)ccc2Sc2ccccc21
5,39.8 nM,CC(NC(=O)c1ccc2c(c1)N=C(c1ccc(Cl)cc1)c1ccccc1S2)c1ccccc1 (stereo not drawn) [drawing 1107]
6,50.1 nM,CCCC1=Nc2cc(C(=O)NCCC3=CCCCC3)ccc2Sc2ccccc21
7,79.4 nM,O=C(NN1CCOCC1)c1ccc2c(c1)N=C(c1cccc(Cl)c1)c1ccccc1S2
8,12.6 nM,O=C(NCc1cccc(Cl)c1)c1ccc2c(c1)N=C(c1ccc(Cl)cc1)c1cc(F)ccc1S2 [drawing 837]
9,2.51 nM,Cc1csc(CNC(=O)c2ccc3c(c2)N=C(c2cccc(C)n2)c2ccccc2S3)c1 [drawing 561]
10,398 nM,O=C(NNC(=O)c1ccc2c(c1)N=C(c1ccc(Cl)cc1)c1ccccc1S2)c1ccccc1
11,158 nM,COc1ccc(C2=Nc3cc(C(=O)NC4CCCC4)ccc3Sc3ccccc32)cc1 [drawing 852]
12,39.8 nM,O=C(NCc1ccccc1Cl)c1ccc2c(c1)N=C(c1ccc(F)cc1)c1ccccc1S2 [drawing 1121]
13,10 nM,O=C(NCc1cccnc1)c1ccc2c(c1)N=C(c1cccc(F)c1)c1ccccc1S2 [drawing 793]
14,316 nM,O=C(NCc1ccccn1)c1ccc2c(c1)N=C(c1ccccn1)c1ccccc1S2
15,39.8 nM,O=C(NCc1ccc(Cl)cc1Cl)c1ccc2c(c1)N=C(c1ccccc1)c1ccccc1S2 [drawing 1167]
16,398 nM,O=C(NC1CCCC1)c1ccc2c(c1)N=C(c1ccccc1F)c1ccccc1S2
17,31.6 nM,Cc1ccsc1C1=Nc2cc(C(=O)NN3CCCCC3)ccc2Sc2ccccc21 [drawing 1045]
18,251 nM,CCCC1=Nc2cc(C(=O)N3CCN(c4cccc(C(F)(F)F)c4)CC3)ccc2Sc2ccccc21
19,25.1 nM,O=C(NN1CCCCC1)c1ccc2c(c1)N=C(c1ccc(Cl)c(F)c1)c1ccccc1S2 [drawing 991]
20,63.1 nM,CCCC1=Nc2cc(C(=O)NCCCOC(C)C)ccc2Sc2ccccc21
21,15.8 nM,O=C(NCCCC(F)(F)F)c1ccc2c(c1)N=C(c1ccccn1)c1ccccc1S2 [drawing 871]
22,39.8 nM,O=C(c1ccc2c(c1)N=C(c1cccc(Cl)c1)c1ccccc1S2)N1CCCCC1
23,7.94 nM,O=C(NCc1cccc(Cl)c1)c1ccc2c(c1)N=C(c1ccc(F)cc1)c1ccccc1S2 [drawing 701]
24,6.31 nM,Cc1ccsc1C1=Nc2cc(C(=O)NCc3cccs3)ccc2Sc2ccccc21 [drawing 685]
25,15.8 nM,CC(CNC(=O)c1ccc2c(c1)N=C(c1ccccc1F)c1ccccc1S2)c1ccccc1 (stereo not drawn) [drawing 909]
26,79.4 nM,O=C(NCc1ccncc1)c1ccc2c(c1)N=C(c1ccc(Cl)cc1)c1ccccc1S2 [drawing 696]

row,Structure (SMILES),IC50
1,O=C(NC1CCCCC1)c1ccc2c(c1)N=C(c1ccccc1Cl)c1ccccc1S2,251 nM

# Same assay, conditions: Appendix A; R-SAT CB1; receptor form not stated; relative to SR141716 (100%)
row,Structure (SMILES),% Inhibition
1,CC(C)CNC(=O)c1ccc2c(c1)N=C(c1cccc(Cl)c1)c1ccccc1S2 [drawing 565],105%
2,O=C(NN1CCCCC1)c1ccc2c(c1)N=C(C1CCCCC1)c1ccccc1S2 [drawing 987],101%

# Same assay, conditions: Appendix A; R-SAT CB1; receptor form not stated; relative to SR141716 (100%); read-out: % Inhibition
row,Emax,Structure (SMILES)
1,27%,CC(C)CNC(=O)c1ccc2c(c1)N=C(c1ccc(Cl)cn1)c1ccc(Cl)cc1S2 [drawing 1172]
2,107%,O=C(NCc1cccs1)c1ccc2c(c1)N=C(c1ccc(Cl)cc1)c1ccccc1S2 [drawing 751]
3,98%,CCCC1=Nc2cc(C(=O)NCCc3ccccc3)ccc2Sc2ccccc21
4,127%,O=C(NC1CCCCC1)c1ccc2c(c1)N=C(c1cccc(F)c1)c1ccccc1S2 [drawing 941]
5,77%,CCCC1=Nc2cc(C(=O)NC3CCN(C(=O)OCC)CC3)ccc2Sc2ccccc21
6,88%,CC(NC(=O)c1ccc2c(c1)N=C(c1ccc(Cl)cc1)c1ccccc1S2)c1ccccc1 (stereo not drawn) [drawing 1107]
7,118%,CCCC1=Nc2cc(C(=O)NCCC3=CCCCC3)ccc2Sc2ccccc21
8,80%,O=C(NN1CCOCC1)c1ccc2c(c1)N=C(c1cccc(Cl)c1)c1ccccc1S2
9,110%,O=C(NCc1cccc(Cl)c1)c1ccc2c(c1)N=C(c1ccc(Cl)cc1)c1cc(F)ccc1S2 [drawing 837]
10,85%,Cc1csc(CNC(=O)c2ccc3c(c2)N=C(c2cccc(C)n2)c2ccccc2S3)c1 [drawing 561]
11,71%,O=C(NNC(=O)c1ccc2c(c1)N=C(c1ccc(Cl)cc1)c1ccccc1S2)c1ccccc1
12,103%,COc1ccc(C2=Nc3cc(C(=O)NC4CCCC4)ccc3Sc3ccccc32)cc1 [drawing 852]
13,83%,CC(C)NC(=O)c1ccc2c(c1)N=C(c1ccc(Br)cc1)c1ccccc1S2
14,84%,CCCCN(C)C(=O)c1ccc2c(c1)N=C(c1ccc(Cl)cc1F)c1ccccc1S2
15,89%,O=C(NCc1ccccc1Cl)c1ccc2c(c1)N=C(c1ccc(F)cc1)c1ccccc1S2 [drawing 1121]
16,130%,O=C(NCc1cccnc1)c1ccc2c(c1)N=C(c1cccc(F)c1)c1ccccc1S2 [drawing 793]
17,81%,O=C(NCc1ccccn1)c1ccc2c(c1)N=C(c1ccccn1)c1ccccc1S2
18,91%,O=C(NCc1ccc(Cl)cc1Cl)c1ccc2c(c1)N=C(c1ccccc1)c1ccccc1S2 [drawing 1167]
19,79%,O=C(NC1CCCC1)c1ccc2c(c1)N=C(c1ccccc1F)c1ccccc1S2
20,100%,Cc1ccsc1C1=Nc2cc(C(=O)NN3CCCCC3)ccc2Sc2ccccc21 [drawing 1045]
21,91%,CCCC1=Nc2cc(C(=O)N3CCN(c4cccc(C(F)(F)F)c4)CC3)ccc2Sc2ccccc21
22,110%,O=C(NN1CCCCC1)c1ccc2c(c1)N=C(c1ccc(Cl)c(F)c1)c1ccccc1S2 [drawing 991]
23,117%,CCCC1=Nc2cc(C(=O)NCCCOC(C)C)ccc2Sc2ccccc21
24,117%,O=C(NCCCC(F)(F)F)c1ccc2c(c1)N=C(c1ccccn1)c1ccccc1S2 [drawing 871]
25,80%,O=C(c1ccc2c(c1)N=C(c1cccc(Cl)c1)c1ccccc1S2)N1CCCCC1
26,103%,O=C(NCc1cccc(Cl)c1)c1ccc2c(c1)N=C(c1ccc(F)cc1)c1ccccc1S2 [drawing 701]
27,114%,Cc1ccsc1C1=Nc2cc(C(=O)NCc3cccs3)ccc2Sc2ccccc21 [drawing 685]
28,110%,CC(CNC(=O)c1ccc2c(c1)N=C(c1ccccc1F)c1ccccc1S2)c1ccccc1 (stereo not drawn) [drawing 909]
29,105%,O=C(NCc1ccncc1)c1ccc2c(c1)N=C(c1ccc(Cl)cc1)c1ccccc1S2 [drawing 696]

row,Structure (SMILES),Emax
1,O=C(NCc1ccco1)c1ccc2c(c1)N=C(c1ccccc1F)c1ccccc1S2 [drawing 859],100%
2,O=C(NN1CCCCC1)c1ccc2c(c1)N=C(c1ccc(F)cc1)c1ccccc1S2 [drawing 680],84%
3,O=C(NN1CCCCC1)c1ccc2c(c1)N=C(c1cccc(Br)c1)c1ccccc1S2 [drawing 723],92%
4,O=C(NC1CCCCC1)c1ccc2c(c1)N=C(c1ccccc1Cl)c1ccccc1S2,67%
5,CCCC1=Nc2cc(C(=O)NC3CCC(C)CC3)ccc2Sc2ccccc21 (stereo not drawn) [drawing 975],114%

# Same assay, conditions: pIC50, Appendix A; R-SAT CB1; receptor form (mutant or wild-type) not stated
row,Structure (SMILES),IC50
1,O=C(NCc1ccco1)c1ccc2c(c1)N=C(c1ccccc1F)c1ccccc1S2 [drawing 859],12.6 nM
2,O=C(NN1CCCCC1)c1ccc2c(c1)N=C(c1cccc(Br)c1)c1ccccc1S2 [drawing 723],7.94 nM
3,CCCC1=Nc2cc(C(=O)NC3CCC(C)CC3)ccc2Sc2ccccc21 (stereo not drawn) [drawing 975],20 nM
